DBAASP
Values after ≈ are worked out from the molar mass of the structure shown. Values joined by “and” are separate entries in the source; they are usually repeats but may differ in a detail not shown here. Equal values may be shown once.

Experiments:
Test in all cases: ≥ marks a high value that may be exact or a test limit, other limits are often not marked, values filed in µg/mL are converted to µM
[1] = test system: Candida albicans ATCC 90028
[2] = test system: Escherichia coli ATCC 25922
[3] = test system: Staphylococcus aureus NCTC 8325
[4] = test system: Staphylococcus aureus ATCC 2592
Acinetobacter baumannii = test system: Acinetobacter baumannii
[5] = test system: Escherichia coli ATCC 25726
[6] = test system: Staphylococcus aureus ATCC 25923

Row | Structure (SMILES) | MIC [1] | MIC [2] | MIC [3] | MIC [4] | MIC (Acinetobacter baumannii) | MIC [5] | MIC [6]
1 | CC[C@H](C)[C@H](NC(=O)[C@H](C)NC(=O)[C@@H]1CCCN1C(=O)[C@H](CC(C)C)NC(=O)[C@@H](N)Cc1ccccc1)C(=O)N[C@@H](C)C(=O)NCC(=O)N[C@@H](CCSC)C(=O)N[C@@H](C)C(=O)N[C@@H](C)C(=O)N[C@@H](CCCCN)C(=O)N[C@@H](Cc1ccccc1)C(=O)N[C@@H](CC(C)C)C(=O)N1CCC[C@H]1C(=O)N[C@@H](CCCCN)C(=O)N[C@H](C(=O)N[C@@H](Cc1ccccc1)C(=O)N[C@H]1CSSC[C@@H](C(=O)O)NC(=O)[C@H](CCCCN)NC(=O)[C@H](CCCCN)NC(=O)[C@H](CO)NC(=O)[C@H]([C@@H](C)CC)NC(=O)[C@H](C)NC1=O)[C@@H](C)CC [FLPAIAGMAAKFLPKIFCAISKKC] | 10 µM (≈ 25.7 µg/mL) | 3 µM (≈ 7.7 µg/mL) | 1 µM (≈ 2.57 µg/mL) | – | – | – | –
2 | CC[C@H](C)[C@H](NC(=O)CN)C(=O)NCC(=O)N[C@@H](CCCN=C(N)N)C(=O)N[C@@H](CCCCN)C(=O)N[C@@H](Cc1ccccc1)C(=O)N[C@@H](CC(C)C)C(=O)NCC(=O)NCC(=O)N[C@H](C(=O)N[C@@H](CCCCN)C(=O)N[C@H](C(=O)N[C@H](C(=O)N[C@@H](Cc1ccccc1)C(=O)N[C@@H](CCCN=C(N)N)C(=O)NCC(=O)NCC(=O)N[C@H](C(=O)N[C@@H](CCCCN)C(=O)N[C@@H](CC(=O)O)C(=O)N[C@@H](Cc1ccccc1)C(=O)N[C@@H](C)C(=O)N[C@@H](CO)C(=O)N[C@@H](CCCCN)C(=O)N[C@@H](Cc1cnc[nH]1)C(=O)N[C@@H](CC(C)C)C(=O)N[C@@H](Cc1ccc(O)cc1)C(N)=O)C(C)C)[C@@H](C)O)[C@@H](C)O)C(C)C [GIGRKFLGGVKTTFRGGVKDFASKHLY] | – | 150 µM and 100 µM | – | ≥ 75 µM | – | – | –
3 | CC[C@H](C)[C@H](NC(=O)CN)C(=O)N[C@@H](CC(C)C)C(=O)N[C@@H](CC(=O)O)C(=O)N[C@H](C(=O)N[C@H](C(=O)N[C@@H](CCCCN)C(=O)N[C@@H](CC(N)=O)C(=O)N[C@@H](C)C(=O)N[C@@H](C)C(=O)N[C@@H](CCCCN)C(=O)N[C@H](C(=O)N[C@H](C(=O)N[C@@H](C)C(=O)N[C@H](C(=O)NCC(=O)N[C@@H](CC(C)C)C(=O)N[C@@H](CC(C)C)C(=O)N[C@@H](CCC(=O)O)C(=O)N[C@@H](CCCCN)C(=O)N[C@H](C(=O)N[C@@H](CCCCN)C(=O)N[C@H]1CSSC[C@@H](C(=O)O)NC(=O)CNC(=O)[C@H]([C@@H](C)O)NC(=O)[C@H](CCSC)NC(=O)[C@H](CCCCN)NC1=O)[C@@H](C)CC)C(C)C)C(C)C)[C@@H](C)O)[C@@H](C)CC)[C@@H](C)O [GILDTIKNAAKTVAVGLLEKIKCKMTGC] | ≥ 150 µM | 17 µM (≈ 49.6 µg/mL) | ≥ 70 µM | – | – | – | –
4 | CC[C@H](C)[C@H](NC(=O)CN)C(=O)N[C@@H](Cc1c[nH]c2ccccc12)C(=O)N[C@@H](CCCCN)C(=O)N[C@H](C(=O)N[C@H](C(=O)N[C@@H](CCCCN)C(=O)N[C@@H](CO)C(=O)N[C@@H](CCSC)C(=O)NCC(=O)N[C@@H](CCCCN)C(=O)N[C@H](C(=O)N[C@@H](Cc1ccccc1)C(=O)N[C@@H](C)C(=O)NCC(=O)N[C@@H](C)C(=O)N[C@H](C(=O)N[C@@H](CC(C)C)C(=O)N[C@@H](CCC(N)=O)C(=O)N[C@@H](CC(N)=O)C(=O)N[C@@H](CC(C)C)C(N)=O)[C@@H](C)CC)C(C)C)[C@@H](C)CC)[C@@H](C)O [GIWKTIKSMGKVFAGAILQNL] | 12.5 µM (≈ 28.4 µg/mL) | – | – | – | 12.5 µM (≈ 28.4 µg/mL) | 12.5 µM (≈ 28.4 µg/mL) | 6.25 µM (≈ 14.2 µg/mL)
5 | CSCC[C@H](NC(=O)[C@H](CCSC)NC(=O)[C@H](CCCCN)NC(=O)CNC(=O)[C@@H](NC(=O)[C@@H](NC(=O)[C@H](CCCCN)NC(=O)[C@H](CC(C)C)NC(=O)CNC(=O)[C@H](Cc1ccccc1)NC(=O)[C@H](CCCCN)NC(=O)[C@H](Cc1ccccc1)NC(=O)[C@H](C)NC(=O)[C@H](CCCCN)NC(=O)CNC(=O)[C@H](CC(C)C)NC(=O)[C@H](CC(C)C)NC(=O)[C@H](CO)NC(=O)CNC(=O)[C@H](CC(C)C)NC(=O)CN)[C@@H](C)O)C(C)C)C(=O)N[C@@H](C)C(=O)NCC(=O)N[C@@H](C)C(=O)N1CCC[C@H]1C(=O)N[C@@H](CCCN=C(N)N)C(=O)N[C@@H](CCC(=O)O)C(=O)N[C@@H](CCC(N)=O)C(=O)O [GLGSLLGKAFKFGLKTVGKMMAGAPREQ] | 25 µM (≈ 72.3 µg/mL) | – | – | – | – | 12.5 µM (≈ 36.2 µg/mL) | 6 µM (≈ 17.4 µg/mL)
6 | CC[C@H](C)[C@H](NC(=O)CNC(=O)[C@H](CCCCN)NC(=O)[C@H](Cc1ccccc1)NC(=O)[C@@H](NC(=O)[C@H](CCCCN)NC(=O)[C@H](CCCCN)NC(=O)[C@H](CC(C)C)NC(=O)[C@H](C)NC(=O)[C@H](CCCCN)NC(=O)[C@H](CC(C)C)NC(=O)CN)C(C)C)C(=O)N[C@@H](Cc1cnc[nH]1)C(=O)N[C@@H](CCCCN)C(=O)N[C@@H](C)C(=O)N[C@H](C(=O)N[C@@H](CCCCN)C(=O)N[C@@H](CC(C)C)C(=O)N[C@H](C(=O)N[C@@H](CC(N)=O)C(=O)N[C@@H](CCCCN)C(=O)N[C@@H](Cc1cnc[nH]1)C(=O)N[C@H](C(=O)N[C@@H](CCCCN)C(=O)O)C(C)C)[C@@H](C)CC)[C@@H](C)CC [GLKALKKVFKGIHKAIKLINKHVK] | – | 5 µM (≈ 13.6 µg/mL) | 20 µM (≈ 54.2 µg/mL) | – | – | – | –
7 | CC[C@H](C)[C@H](NC(=O)[C@H](C)NC(=O)[C@H](CC(C)C)NC(=O)[C@H](CC(N)=O)NC(=O)[C@H](CCCCN)NC(=O)[C@H](CC(C)C)NC(=O)[C@H](CO)NC(=O)[C@H](CC(=O)O)NC(=O)[C@H](CC(C)C)NC(=O)[C@H](CC(C)C)NC(=O)CN)C(=O)N[C@@H](CC(N)=O)C(=O)N[C@@H](C)C(=O)N[C@@H](C)C(=O)N[C@@H](CCCCN)C(=O)NCC(=O)N[C@@H](C)C(=O)NCC(=O)N[C@@H](CCC(N)=O)C(=O)N[C@@H](CO)C(=O)N[C@H](C(=O)N[C@@H](CC(C)C)C(=O)N[C@@H](CC(N)=O)C(=O)N[C@H](C(=O)N[C@@H](CC(C)C)C(=O)N[C@@H](CO)C(=O)N[C@H]1CSSC[C@@H](C(=O)O)NC(=O)[C@H]([C@@H](C)O)NC(=O)[C@H](CCCCN)NC(=O)[C@H](CO)NC(=O)[C@H](CC(C)C)NC(=O)[C@H](CCCCN)NC1=O)[C@@H](C)O)C(C)C [GLLDSLKNLAINAAKGAGQSVLNTLSCKLSKTC] | – | – | – | – | – | ≥ 37.5 µM | 18.8 µM (≈ 62.5 µg/mL)
8 | CC[C@H](C)[C@H](NC(=O)CNC(=O)[C@H](CCC(N)=O)NC(=O)[C@H](Cc1ccccc1)NC(=O)[C@@H](NC(=O)[C@H](CCCCN)NC(=O)[C@H](CCCCN)NC(=O)[C@H](Cc1ccccc1)NC(=O)[C@H](C)NC(=O)[C@H](CC(N)=O)NC(=O)[C@H](CC(C)C)NC(=O)CN)C(C)C)C(=O)N[C@@H](Cc1cnc[nH]1)C(=O)N[C@@H](CCC(=O)O)C(=O)N[C@@H](C)C(=O)N[C@H](C(=O)N[C@@H](CCCCN)C(=O)N[C@@H](CC(C)C)C(=O)N[C@H](C(=O)N[C@@H](CC(N)=O)C(=O)N[C@@H](CC(N)=O)C(=O)N[C@@H](Cc1cnc[nH]1)C(=O)N[C@H](C(=O)N[C@@H](CCC(N)=O)C(=O)O)C(C)C)[C@@H](C)CC)[C@@H](C)CC [GLNAFKKVFQGIHEAIKLINNHVQ] | – | 20 µM (≈ 54.4 µg/mL) | ≥ 160 µM | – | – | – | –

Second part, the compound after the results:

Row | MIC [1] | MIC [2] | MIC [3] | MIC [4] | MIC (Acinetobacter baumannii) | MIC [5] | MIC [6] | Structure (SMILES)
9 | – | 20 µM (≈ 53.7 µg/mL) | ≥ 80 µM | – | – | – | – | CC[C@H](C)[C@H](NC(=O)CNC(=O)[C@H](CCCCN)NC(=O)[C@H](Cc1ccccc1)NC(=O)[C@@H](NC(=O)[C@H](CCCCN)NC(=O)[C@H](CCCCN)NC(=O)[C@H](CC(C)C)NC(=O)[C@H](C)NC(=O)[C@H](CC(N)=O)NC(=O)[C@H](CC(C)C)NC(=O)CN)C(C)C)C(=O)N[C@@H](Cc1cnc[nH]1)C(=O)N[C@@H](CCC(=O)O)C(=O)N[C@@H](C)C(=O)N[C@H](C(=O)N[C@@H](CCCCN)C(=O)N[C@@H](CC(C)C)C(=O)N[C@H](C(=O)N[C@@H](CC(N)=O)C(=O)N[C@@H](CC(N)=O)C(=O)N[C@@H](Cc1cnc[nH]1)C(=O)N[C@H](C(=O)N[C@@H](CCC(N)=O)C(=O)O)C(C)C)[C@@H](C)CC)[C@@H](C)CC [GLNALKKVFKGIHEAIKLINNHVQ]
10 | – | 20 µM (≈ 53.7 µg/mL) | ≥ 40 µM | – | – | – | – | CC[C@H](C)[C@H](NC(=O)CNC(=O)[C@H](CCC(N)=O)NC(=O)[C@H](Cc1ccccc1)NC(=O)[C@@H](NC(=O)[C@H](CCCCN)NC(=O)[C@H](CCCCN)NC(=O)[C@H](CC(C)C)NC(=O)[C@H](C)NC(=O)[C@H](CC(N)=O)NC(=O)[C@H](CC(C)C)NC(=O)CN)C(C)C)C(=O)N[C@@H](Cc1cnc[nH]1)C(=O)N[C@@H](CCCCN)C(=O)N[C@@H](C)C(=O)N[C@H](C(=O)N[C@@H](CCCCN)C(=O)N[C@@H](CC(C)C)C(=O)N[C@H](C(=O)N[C@@H](CC(N)=O)C(=O)N[C@@H](CC(N)=O)C(=O)N[C@@H](Cc1cnc[nH]1)C(=O)N[C@H](C(=O)N[C@@H](CCC(N)=O)C(=O)O)C(C)C)[C@@H](C)CC)[C@@H](C)CC [GLNALKKVFQGIHKAIKLINNHVQ]
11 | ≥ 100 µM | > 100 µM | ≥ 100 µM | – | – | – | – | CC[C@H](C)[C@H](N)C(=O)N[C@@H](CC(C)C)C(=O)N1CCC[C@H]1C(=O)N[C@H](C(=O)N[C@@H](CC(C)C)C(=O)NCC(=O)N[C@@H](CC(N)=O)C(=O)N[C@@H](CC(C)C)C(=O)N[C@@H](CC(C)C)C(=O)N[C@@H](CC(N)=O)C(=O)N[C@@H](CO)C(=O)N[C@@H](CC(C)C)C(=O)N[C@@H](CC(C)C)C(N)=O)[C@@H](C)CC [ILPILGNLLNSLL]
12 | – | – | – | – | – | ≥ 40 µM | 40 µM (≈ 106 µg/mL) | CC[C@H](C)[C@H](N)C(=O)N[C@H](C(=O)N[C@H](C(=O)N1CCC[C@H]1C(=O)N1CCC[C@H]1C(=O)N[C@H](C(=O)N[C@H](C(=O)N[C@@H](CCCCN)C(=O)N[C@@H](CC(=O)O)C(=O)N[C@H](C(=O)N[C@@H](CC(C)C)C(=O)N[C@@H](CCCCN)C(=O)N[C@@H](CCCCN)C(=O)N[C@@H](Cc1ccccc1)C(=O)N[C@@H](Cc1ccccc1)C(=O)N[C@@H](CCCCN)C(=O)NCC(=O)NCC(=O)N[C@H](C(=O)N[C@@H](C)C(=O)NCC(=O)N[C@H](C(=O)N[C@@H](CCSC)C(=O)NCC(=O)N[C@@H](CCC(N)=O)C(=O)O)C(C)C)[C@@H](C)CC)[C@@H](C)O)C(C)C)[C@@H](C)CC)[C@@H](C)CC)[C@@H](C)O [ITIPPIVKDTLKKFFKGGIAGVMGQ]
